This note sets out measurements from patent US20120252801A1, “ANTIFUNGAL COMPOUNDS” (Katholieke Universiteit Leuven, K.U.Leuven R&D, priority 2009, published 2012).

Molecules are shown by their SMILES. Values after ≈ are worked out from the molar mass of the structure shown. Some results are limits rather than exact numbers.

The subject of data set [1] is C. albicans SC5314. Briefly: Minimal fungicidal concentration (MFC) against C. albicans. It counts as cell-based. Particulars: Candida albicans, 24 h at 37° C. in PBS, less than 1% survival relative to DMSO control. How it is done: (§1) Two-fold dilution series of the compounds were prepared in 50% DMSO. 5 μl of these series were added to 95 μl PBS buffer inoculated with 1/500 cells of an overnight culture of either C. albicans, C. glabrata or C. krusei (final DMSO conc 2%). 2% DMSO served as negative control. After 24 h incubation at 37° C. of these cultures with the antifungal compounds in PBS, the cell cultures were plated on YPD agar and colony forming units (CFUs) were determined after incubation of the plates for 2 days. MFC was determined as the minimal concentration of a compound resulting in less than 1% survival of the yeast culture relative to the DMSO control.

In data set [2] the test system is HepG2 cells. As to the kind of experiment: Cellular cytostatic and/or cytotoxic effect on HepG2 cells. Format: cell-based. How it is done: Evaluation of the cytostatic and/or cytotoxic effect of compounds on certain specific eukaryotic cells is a standard procedure and well known to the person skilled in the art. The effect of a selection of compounds of the invention on the proliferation of HepG2 cells was measured.

For data set [3], the system named is C. albicans SC5314. As to the kind of experiment: C. elegans model for C. albicans infection. Format: in vivo. Particulars: different concentrations; FIG. 1. How it is done:
The in vivo efficacy of the compounds was assessed in a C. elegans model for Candida infection as described by Breger et al., 2007 (Breger, J., et al. 2007. PLoS Pathog. 3:[…]). To this end, L4 larvae of a double mutant (glp-[…]) of C. elegans were used and fed for 4 h on C. albicans SC5314 agar plates (YPD agar plates on the surface inoculated with 100 μl of an overnight culture in YPD and incubated for 16 h at 37° C.). Worms were collected and washed with M9 buffer containing 3 g/L KH2PO4, 6 g/L Na2HPO4, 5 g/L NaCl, 1 mM MgSO4, 10 μg/mL cholesterol and 100 μg/mL Kanamycin. Forty-to-fifty worms were suspended in 1 mL in each well of 24-well microtiterplates, in the presence or absence (DMSO control) of the compounds of the invention (at different concentrations). Survival of the worms was monitored daily. The percentage survival of the worms in the presence or absence of antifungal compounds was calculated each day relative to the survival at day 0. Data are means of duplicate measurements and experiments were performed at least twice. As positive controls for efficacy testing, amphotericin B (10 μg/ml) and miconazole (10 μg/ml) in DMSO can be used.

For data set [4], the system named is A. fumigatus. As to the kind of experiment: Minimal inhibitory concentration (MIC) against A. fumigatus. It counts as cell-based. Conditions: Aspergillus fumigatus; minimal concentration that inhibits growth.
The test system of data set [5] is Fusarium oxysporum. As to the kind of experiment: Minimal inhibitory concentration (MIC) against F. oxysporum. Conditions: 24 h at 25° C. in ½ PDB, minimal concentration that inhibits growth. Format: cell-based. How it is done: (§2) To determine the MIC and MFC of a compound against Aspergillus flavus, Fusarium oxysporum or F. culmorum, a 2-fold dilution series of the compounds of the invention was incubated with the corresponding spore suspension in ½ PDB (potato dextrose broth, Difco) (2×10^4 spores/ml). […] MFC was determined as the minimal concentration of a compound resulting in less than 1% survival of the fungal culture relative to the DMSO control.

Data set [6] has as its system C. albicans SC5314. Briefly: Mouse model for Candidiasis, fungal burden in the kidney. It counts as in vivo, BALB/c mice. Conditions: 10 mg/kg intraperitonealy, once or twice a day; kidneys 5 days after infection; FIG. 2. From the text:
An assay for in vivo efficacy measurement using mouse model for Candidiasis Fungal burden in the kidney of infected mice was used to evaluate the (prophylactic and/or therapeutic) activity of the compounds of the invention in murine models of infection by C. albicans, as described in the prior art (Tavares P M et al. Antimicrob Agents Chemother. 2008 December; 52(12):4522-5; Clemons K V, D A Stevens, J Antimicrob. Chemother. 2001; 47:183-186; Okawa Yet al., Biol Pharm Bull 2007, 30:1870-1873). In general, mice can be inoculated intravenously via lateral tail vein with 2×10^5 to […] C. albicans yeast cells suspended in saline. The compounds can be administered (for example intravenously or intraperitonealy or orally) before (for example 1 hour before) or after (for example 16 hours after) the challenge with C. albicans. After this first injection, four similar subsequent injections can be made with 24 h or other intervals. […] 100 μl-samples can be plated onto solid brain heart infusion (BHI) plates and C. albicans CFU (colony forming units) are counted after 2 days.
More specifically, the in vivo experiment was performed as following (in accordance with Tavares P M et al. Antimicrob Agents Chemother. 2008 December; 52(12):4522-5). […] 100 μl-samples were plated onto solid brain heart infusion (BHI) plates and C. albicans CFU (colony forming units) were counted after 2 days. […]

Data set [7] has as its system C. glabrata. Briefly: Minimal fungicidal concentration (MFC) against C. glabrata. Format: cell-based, Candida glabrata. Particulars: Nakaseomyces glabratus; 24 h at 37° C. in PBS; less than 1% survival relative to DMSO control. How it is done: as §1
Data set [8] has as its system Aspergillus flavus. As to the kind of experiment: Minimal inhibitory concentration (MIC) against A. flavus. It counts as cell-based. Conditions: 24 h at 25° C. in ½ PDB, minimal concentration that inhibits growth. Here is the method: as §2

In general, MFC refers to the smallest concentration meeting the test's criterion for killing the fungus. The term MIC denotes the smallest concentration in the dilution series that meets the test's criterion for growth inhibition. Read a high MIC as a less susceptible organism. Regarding `CCN1CC(C)(C)OC(=O)C1CC(=O)Nc1ccc(C(C)C)cc1` (centres unmarked) [CPD-06, 2-(4-ethyl-6,6-dimethyl-2-oxomorpholin-3-yl)-N-(4-isopropylphenyl)acetamide], the values for the MFC in data set [1] and in data set [7] were 12.5 µg/mL (≈ 37.6 µM) and 25 µg/mL (≈ 75.2 µM), respectively. Further, the “LD30 48 h (lethal dose for 30% of the cells in culture)” value in data set [2] is over 25 µM. The “% survival of C. albicans infected C. elegans” value in data set [3] was “increase in survival”. Besides, the MIC in data set [4] worked out at 1.6 µg/mL (≈ 4.81 µM); in data set [5], 50 µg/mL (≈ 150 µM); in data set [8], 12.5 µg/mL (≈ 37.6 µM). Moreover, the “activity against Candida albicans infection (CFU from kidneys)” value in data set [6] is given as “strong activity”.
